Measurements published in patent US20120232043A1, “LUBIPROSTONE FOR OBSTETRICAL OR GYNECOLOGICAL APPLICATIONS” (CEMAG, priority 2009, published 2012).

Tested on: women requesting early pregnancy termination (<64 days of amenorrhea)
Assay: Early pregnancy termination in women: oral mifepristone followed by oral lubiprostone
Assay type: in vivo
Settings: twelve women, 200 mg mifepristone once orally, followed 24 hours later by oral lubiprostone 8 μg twice daily for 2 consecutive days
Experimental: Twelve women requesting early pregnancy termination (<64 days of amenorrhea) have received 200 mg mifepristone once, orally followed 24 hours later by the oral administration of lubiprostone (8 μg twice daily for 2 consecutive days). Efficacy rate (i.e. complete pregnancy termination, without need for surgical procedure) was […]. In one person, ovular fragments had to be removed at the uterine os with a forceps. Median bleeding time was 8 days. There was no specific adverse event except mild diarrhea in 3 subjects.

With CCCCC(F)(F)[C@@]1(O)CC[C@H]2[C@@H](CC(=O)[C@@H]2CCCCCCC(=O)O)O1 [lubiprostone, 7-[(2R,4aR,5R,7aR)-2-(1,1-difluoropentyl)-2-hydroxy-6-oxo-3,4,4a,5,7,7a-hexahydrocyclopenta[b]pyran-5-yl]heptanoic acid] the “Efficacy rate (i.e. complete pregnancy termination, without need for surgical procedure)” value (<64 days of amenorrhea) was 97%, the “Adverse event: mild diarrhea (no other specific adverse event)” value was 3 subjects and the Median bleeding time was 8 days. The “Ovular fragments had to be removed at the uterine os with a forceps” value was “one”.
